{
  "source": "paper PMC7482066",
  "about": "“Unstable Mechanisms of Resistance to Inhibitors of Escherichia coli Lipoprotein Signal Peptidase” (mBio, 2020)",
  "key": {"[1]": {"test_system": "E. coli CFT073", "experiment": "Frequency of resistance (FOR)", "type": "cell-based", "conditions": "4× MIC, MHII agarose", "experimental": "(§1) Frequencies of resistance (FORs) of G0790 were determined for E. coli CFT073, E. cloacae (ATCC 13047), and K. pneumoniae (ATCC 700603) as previously published ([70]). To determine the FOR, 3 to 4 colonies of the strain to be tested were picked from a fresh plate and diluted to an optical density at 600 nm (OD600) of 0.00001 in 1 ml of cation-adjusted MHBII. Ten independent 5-ml cultures in MHBII were prepared by inoculating 5 μl (approximately 1 × 10^3 CFU) and incubated at 37°C for 18 h. The bacteria were pelleted by centrifugation at 4000 × g at 4°C for 15 min and resuspended in 0.5 ml fresh MHBII. Two hundred fifty microliters of the bacterial suspension was plated evenly on MHII agarose plates containing globomycin or G0790 at a final concentration of 4× and 8× MIC. In parallel, CFU from each independent culture was measured by spotting 10-fold serial dilutions on MHII agar plates and incubated at 37°C for 18 h. Colonies were counted at days 1, 2, and 3 postinoculation. FOR was calculated as the ratio of the total number of resistant colonies relative to the total CFU plated. For strains that had no resistant colonies growing on plates, the p0 method was used to calculate the FOR (FOR = m/total CFU plated, where m = −ln p0 and p0 is the proportion of cultures with no mutants; 0.7 ≥ p0 ≥ 0.1), as described previously ([71]). Colonies were picked and resuspended in 30 μl MHBII broth medium, and 10 μl was plated on an MHII agar plate containing G0790 to be used to determine the MIC. Of the remaining 20 μl, half was used to inoculate 1.5 ml MHBII broth medium containing G0790 and grown at 37°C for 18 h to generate cell lysates for Western blot analysis, isolate genomic DNA (gDNA) for whole-genome sequencing, and for frozen glycerol stocks."}, "[2]": {"test_system": "E. coli CFT073 Δlpp", "experiment": "Frequency of resistance (FOR)", "type": "cell-based", "conditions": "for FOR (frequency of resistance): MHII agarose", "experimental": "as §1"}, "[3]": {"test_system": "E. cloacae 13047", "experiment": "Frequency of resistance (FOR)", "type": "cell-based", "conditions": "4× MIC, MHII agarose", "experimental": "as §1"}, "[4]": {"test_system": "G0790-resistant E. coli CFT073", "experiment": "Population analysis profile (heteroresistance)", "type": "cell-based", "conditions": "MHII agarose, 18 h, 37°C", "experimental": "The population analysis profiles of G0790 heteroresistant subpopulations were determined according to a method described previously ([79]). Briefly, three independent cultures for each G0790-resistant mutant strain were grown overnight at 37°C in MHBII containing G0790 at sub-MICs to maintain selective pressure. Five microliters or 10-fold serial dilution (10^−1 to 10^−7) in duplicates for each culture were transferred to MHII agarose plates or MHII agarose plates containing a range of G0790 concentrations (100, 75, 50, 37.5, 25, 12.5, 6.25, 3.125, 1.56, 0.8, and 0.4 μM). CFU were enumerated after incubation at 37°C for 18 h. Heteroresistance was defined using the criteria published by El-Halfawy and colleagues, which states there should be a >8-fold difference between the highest noninhibitory concentration and the highest inhibitory concentration ([2], [80])."}, "[5]": {"test_system": "Lpp", "experiment": "Lpp localization in peptidoglycan-associated and membrane fractions, Western blot", "type": "cell-based, E. coli", "conditions": "CFT073, 2× MIC G0790", "experimental": "Purification of peptidoglycan-associated proteins (PAPs) was performed according to published methods ([43], [67], [68]) with some modifications. Briefly, bacteria were harvested in mid-exponential phase for treatment and then subjected to PAP extraction by resuspending cell pellets from an optical density (OD; A600) of 10 in 6 ml of PAP extraction buffer containing 2% (wt/vol) SDS in 100 mM Tris-HCl (pH 8.0) with 100 mM NaCl, 10% glycerol, and cOmplete mini EDTA-free protease inhibitor cocktail (Sigma-Aldrich). After 60 min at room temperature (RT), the extraction was subjected to centrifugation at 100,000 × g for 60 min at 22°C, and the pellet, containing peptidoglycan-associated proteins, was washed once with the same PAP extraction buffer with centrifugation at 100,000 × g for 30 min and resuspended in 200 μl of PAP extraction buffer (referred to as the SDS-insoluble or PAP fraction). The supernatant containing the SDS-soluble fraction was aliquoted and frozen (referred to as the non-PAP fraction). Both fractions were treated with equal volumes of BugBuster buffer prior to the addition of sample buffer for Western immunoblotting as described above.\nThe inner and outer membrane fractionations of bacterial cells were performed according to published methods ([69]), with some modifications. […]"}},
  "data": [
    {"compound": "CCCCCC[C@H]1OC(=O)CNC(=O)[C@H]([C@H](C)O)NC(=O)[C@H](CN)NC(=O)[C@H](C2CCCCC2)NC(=O)[C@H](CCC)N(C)C(=O)[C@@H]1C", "note": "[G0790]", "values": [
      {"measurement": "FOR (frequency of resistance)", "setting": "[1]", "result": "2.9 × 10^−9"},
      {"measurement": "Decrease in FOR in CFT073 Δlpp compared to WT CFT073", "setting": "[2]; 4× MIC", "result": "~85", "unit": "fold"},
      {"measurement": "FOR (frequency of resistance)", "setting": "[2]; 4× MIC", "result": "3.4 × 10^−11"},
      {"measurement": "FOR (frequency of resistance)", "setting": "[2]; 8× MIC, no colonies, p0 method", "result": "<1.7 × 10^−11"},
      {"measurement": "FOR (frequency of resistance)", "setting": "[3]", "result": "2.7 × 10^−9"},
      {"measurement": "Fold difference between highest inhibitory and highest noninhibitory concentration", "setting": "[4]; CFT073 4×-R3", "result": 128, "unit": "fold"},
      {"measurement": "Fold difference between highest inhibitory and highest noninhibitory concentration", "setting": "[4]; CFT073 4×-R10", "result": 96, "unit": "fold"},
      {"measurement": "Fold difference between highest inhibitory and highest noninhibitory concentration", "setting": "[4]; CFT073 8×-R5", "result": 12, "unit": "fold"},
      {"measurement": "Lpp localization after treatment", "setting": "[5]", "result": "loss of the peptidoglycan-associated form of Lpp in the outer membrane and its accumulation in the inner membrane"}
    ]}
  ]
}
